“And” between values parts separate entries of the source, which are not always exact repeats. Equal entries are not always repeated.
Columns and labels:
[1] = Determination of partition coefficients (octanol / phosphate buffer pH 7.4); assay type: physicochemical; conditions: for Partition Coefficient: octanol/phosphate buffer pH 7.4, samples 1-3
Protocol: Octanol and phosphate buffer (pH 7.4) were saturated with a counter-solvent for 24 hours or more. A given amount of a naphthoquinone-based compound (Compound 1 of Table 1 below) was dissolved in the thus-saturated octanol, mixed with triple-distilled water and stirred using a magnetic stirrer at 200 rpm for 13 hours or more. Samples were taken, filtered through a 0.45 μm RC Membrane filter and diluted with methanol. The diluted sample materials were analyzed by HPLC. A partition coefficient versus an amount of Compound 1 was determined.

[2] = Intestinal absorption, single-pass intestinal perfusion; assay type: in vivo, rats
Protocol: In order to determine intestinal absorption (%) of a naphthoquinone-based compound, a single-pass intestinal perfusion technique was carried out in internal organs of rats, including jejunum, ileum and large intestine. The steady-state intestinal effective permeability (Peff) can be expressed according to the following equation. Peff=[−Qin·ln(Cout/Cin)]/A • Peff: Steady-state intestinal effective permeability (cm/s) • Qin: Perfusion flow rate (0.4 mL/min) • Cin, Cout: Inlet and fluid-transport-corrected outlet solution concentrations • A: Mass transfer surface area within intestinal segment (2πrL), • r, L: Radius and length of intestinal segment The radius (r) and length (L) of the jejunum, ileum and large intestine used in experiments are as follows: (r: jejunum, 0.21 cm; ileum, 0.22 cm; large intestine, 0.23 cm, and L: 10 cm) The steady-state was confirmed by the ratio of the outlet to inlet concentrations (Cout/Cin) versus time. The steady-state is established when the Cout/Cin ratio of the naphthoquinone-based compound is maintained at a constant value (n=3, error bars with respect to S.D.). Residual amounts of the naphthoquinone-based compound in the above three intestinal organs were measured at different time points. The outlet steady-state concentration of the compound under perfusion was calculated. The results thus obtained are given in Table 4 and FIG. 2, respectively. The effective permeability was measured at 4 points of each intestinal tissue.

[3] = orally administered; cited from earlier work

## CC1(C)CCC2=C(O1)c1ccccc1C(=O)C2=O [Compound 1]
[1]
  octanol-solubility higher than water-solubility: 100 fold
[1]; octanol/phosphate buffer pH 7.4, pH 7.4, average over all amounts and samples, read-out: average partition coefficient
  logD: 2.3
[1]; 100 μg/mL
  Partition Coefficient: 2.17 and 2.02 and 1.99
[1]; 200 μg/mL
  Partition Coefficient: 2.40 and 2.20 and 2.24
[1]; 2000 μg/mL
  Partition Coefficient: 2.59 and 2.62 and 2.58
[1]; Excess
  Partition Coefficient: 2.65 and 2.05 and 2.08
[1]; pH 7.4
  average partition coefficient: * average partition coefficient: 2.299 (σ = 0.255)
[2]; Duodenum
  Peff × 10^−5: 0.79 ± 0.33 10^−5 cm/s
[2]; Ileum
  Peff × 10^−5: 5.15 ± 1.49 10^−5 cm/s
[2]; Jejunum
  Peff × 10^−5: 2.37 ± 1.17 10^−5 cm/s
[2]; Large intestine
  Peff × 10^−5: 7.82 ± 0.93 10^−5 cm/s

## C[C@H]1COC2=C1C(=O)C(=O)c1c2ccc2c1CCCC2(C)C [cryptotanshinone]
[3]
  absorption rate: 2.05%

— US20100062065A1, “PHARMACEUTICAL COMPOSITION CONTAINING NAPHTHOQUINONE-BASED COMPOUND FOR INTESTINE DELIVERY SYSTEM” (MAZENCE INC., priority 2006, published 2010)
